Test results: patent US20090023731A1, “SOLUBLE EPOXIDE HYDROLASE INHIBITORS” (Arete Therapeutics, Inc., priority 2007, published 2009)

Tested on: soluble epoxide hydrolase (sEH)
Experiment: Fluorescent assay for mouse and human soluble epoxide hydrolase (CMNPC substrate)
Format: biochemical
Procedure: Recombinant mouse sEH (MsEH) and human sEH (HsEH) were produced in a baculovirus expression system as previously reported. […] The expressed proteins were purified from cell lysate by affinity chromatography. […] Protein concentration was quantified using the Pierce BCA assay using bovine serum albumin as the calibrating standard.
The IC50s for each inhibitor were according to the following procedure:
Bis/Tris HCl 25 mM pH 7.0 containing 0.1 mg/mL of BSA (buffer A) CMNPC at 0.25 mM in DMSO.
Mother solution of enzyme in buffer A (Mouse sEH at 6 μg/mL and Human sEH at 5 μg/mL). Inhibitor dissolved in DMSO at the appropriate concentration.
In a black 96 well plate, fill all the wells with 150 μL of buffer A.
Add 2 μL of DMSO in well A2 and A3, and then add 2 μL of inhibitor solution in A1 and A4 through A12.
Add […] of buffer A in row A, then mix several time and transfer […] to row B. Repeat this operation up to row H. The […] removed from row H is discarded.
Add […] of buffer A in column 1 and 2, then add […] of enzyme solution to column 3 to 12.
Incubate the plate for 5 minutes in the plate reader at 30° C.
During incubation prepare the working solution of substrate by mixing 3.68 mL of buffer A (4×0.920 mL) with 266 μL (2×133 μL) of substrate solution).
The velocities are used to analyze and calculate the IC50s.

SMILES	% Inh (inhibitor conc. 500 nM) [%]	% Inh (inhibitor conc. 50 nM) [%]	also measured
O=C(Nc1cccc(OCCCN2CCOCC2)c1)Nc1c(Cl)cccc1Cl [Compound 3, 1-(2,6-Dichloro-phenyl)-3-[3-(3-morpholin-4-yl-propoxy)-phenyl]-urea]	–	–	% Inh (inhibitor conc. 50000 nM): 90%
O=C(Nc1cccc(OCCCN2CCOCC2)c1)Nc1c(F)cc(F)cc1F [Compound 6, 1-[3-(3-Morpholin-4-yl-propoxy)-phenyl]-3-(2,4,6-trifluoro-phenyl)-urea]	–	–	% Inh (inhibitor conc. 50000 nM): 92%
O=C(Nc1cccc(OCCCN2CCOCC2)c1)Nc1c(F)c(F)c(F)c(F)c1F [Compound 7, 1-[3-(3-Morpholin-4-yl-propoxy)-phenyl]-3-pentafluorophenyl-urea]	–	–	% Inh (inhibitor conc. 5000 nM): 87%
O=C(Nc1cccc(OCCCN2CCOCC2)c1)Nc1ccc2c(c1)OCO2 [Compound 8, 1-Benzo[1,3]dioxol-5-yl-3-[3-(3-morpholin-4-yl-propoxy)-phenyl]-urea]	91	–	–
O=C(Cc1ccc(F)cc1)Nc1cccc(OCCCN2CCOCC2)c1 [Compound 11, 2-(4-Fluoro-phenyl)-N-[3-(3-morpholin-4-yl-propoxy)-phenyl]-acetamide]	–	–	% Inh (inhibitor conc. 5000 nM): 85%
O=C(Cc1ccc2c(c1)OCO2)Nc1cccc(OCCCN2CCOCC2)c1 [Compound 12, 2-Benzo[1,3]dioxol-5-yl-N-[3-(3-morpholin-4-yl-propoxy)-phenyl]-acetamide]	–	–	% Inh (inhibitor conc. 5000 nM): 87%
O=C(Cc1cccnc1)Nc1cccc(OCCCN2CCOCC2)c1 [Compound 13, N-[3-(3-Morpholin-4-yl-propoxy)-phenyl]-2-pyridin-3-yl-acetamide]	–	–	% Inh (inhibitor conc. 50000 nM): 75%
O=C(Nc1ccccc1)Nc1ccc(OCCCN2CCOCC2)cc1 [Compound 14, 1-[4-(3-Morpholin-4-yl-propoxy)-phenyl]-3-phenyl-urea]	90	–	–
O=C(Nc1cccnc1)Nc1cccc(OCCCN2CCOCC2)c1 [Compound 16, 1-[3-(3-Morpholin-4-yl-propoxy)-phenyl]-3-pyridin-3-yl-urea]	–	–	% Inh (inhibitor conc. 50000 nM): 95%
CN(C)c1cccc(NC(=O)Nc2cccc(OCCCN3CCOCC3)c2)c1 [Compound 17, 1-(3-Dimethylamino-phenyl)-3-[3-(3-morpholin-4-yl-propoxy)-phenyl]-urea]	–	–	% Inh (inhibitor conc. 5000 nM): 95%
O=C(Nc1ccc(OCCN2CCOCC2)cc1)Nc1cccc(OCCCN2CCOCC2)c1 [Compound 18, 1-[4-(2-Morpholin-4-yl-ethoxy)-phenyl]-3-[3-(3-morpholin-4-yl-propoxy)-phenyl]-urea]	66	–	–
O=C(Cc1ccc(F)c(F)c1)Nc1cccc(OCCCN2CCOCC2)c1 [Compound 19, 2-(3,4-Difluoro-phenyl)-N-[3-(3-morpholin-4-yl-propoxy)-phenyl]-acetamide]	–	–	% Inh (inhibitor conc. 5000 nM): 92%
O=C(Cc1ccc(Cl)cc1)Nc1ccc(OCCCN2CCOCC2)cc1 [Compound 20, 2-(4-Chloro-phenyl)-N-[4-(3-morpholin-4-yl-propoxy)-phenyl]-acetamide]	72	–	–
O=C(Nc1ccc(OCCCN2CCOCC2)cc1)Nc1ccc(C(F)(F)F)cc1 [Compound 21, 1-[4-(3-Morpholin-4-yl-propoxy)-phenyl]-3-(4-trifluoromethyl-phenyl)-urea]	–	96	–
O=C(Cc1ccc(Cl)cc1)Nc1cccc(OCCCN2CCOCC2)c1 [Compound 22, 2-(4-Chloro-phenyl)-N-[3-(3-morpholin-4-yl-propoxy)-phenyl]-acetamide]	73	–	–
O=C(Cc1ccc(OC(F)(F)F)cc1)Nc1cccc(OCCCN2CCOCC2)c1 [Compound 23, N-[3-(3-Morpholin-4-yl-propoxy)-phenyl]-2-(4-trifluoromethoxy-phenyl)-acetamide]	86	–	–
O=C(Cc1ccccc1)Nc1ccc(OCCCN2CCOCC2)cc1 [Compound 25, N-[4-(3-Morpholin-4-yl-propoxy)-phenyl]-2-phenyl-acetamide]	–	–	% Inh (inhibitor conc. 5000 nM): 80%
O=C(Nc1ccc(Cl)cc1)Nc1ccc(OCCCN2CCOCC2)cc1 [Compound 26, 1-(4-Chloro-phenyl)-3-[4-(3-morpholin-4-yl-propoxy)-phenyl]-urea]	–	88	–
O=C(Cc1ccc(C(F)(F)F)cc1)Nc1ccc(OCCCN2CCOCC2)cc1 [Compound 27, N-[4-(3-Morpholin-4-yl-propoxy)-phenyl]-2-(4-trifluoromethyl-phenyl)-acetamide]	83	–	–
O=C(Nc1ccccc1)Nc1ccc(F)c(OCCCN2CCOCC2)c1 [Compound 29, 1-[4-Fluoro-3-(3-morpholin-4-yl-propoxy)-phenyl]-3-phenyl-urea]	73	–	–
O=C(Nc1ccc(Cl)cc1)Nc1ccc(F)c(OCCCN2CCOCC2)c1 [Compound 30, 1-(4-Chloro-phenyl)-3-[4-fluoro-3-(3-morpholin-4-yl-propoxy)-phenyl]-urea]	96	–	–
O=C(Nc1ccc(F)cc1)Nc1ccc(F)c(OCCCN2CCOCC2)c1 [Compound 31, 1-[4-Fluoro-3-(3-morpholin-4-yl-propoxy)-phenyl]-3-(4-fluoro-phenyl)-urea]	78	–	–
O=C(Nc1ccc(C(F)(F)F)cc1)Nc1ccc(F)c(OCCCN2CCOCC2)c1 [Compound 32, 1-[4-Fluoro-3-(3-morpholin-4-yl-propoxy)-phenyl]-3-(4-trifluoromethyl-phenyl)-urea]	–	87	–
O=C(Nc1ccc(OC(F)(F)F)cc1)Nc1ccc(F)c(OCCCN2CCOCC2)c1 [Compound 33, 1-[4-Fluoro-3-(3-morpholin-4-yl-propoxy)-phenyl]-3-(4-trifluoromethoxy-phenyl)-urea]	–	83	–

More lines, main results first:

% Inh (inhibitor conc. 500 nM) [%]	% Inh (inhibitor conc. 50 nM) [%]	SMILES	also measured
62	–	O=C(Nc1ccccc1)Nc1cccc(OCCCN2CCOCC2)c1 [Compound 1, 1-[3-(3-Morpholin-4-yl-propoxy)-phenyl]-3-phenyl-urea]	–
–	82	O=C(Nc1ccc(F)cc1)Nc1cccc(OCCCN2CCOCC2)c1 [Compound 2, 1-(4-Fluoro-phenyl)-3-[3-(3-morpholin-4-yl-propoxy)-phenyl]-urea]	–
–	75	O=C(Nc1cccc(OCCCN2CCOCC2)c1)Nc1ccc(F)c(F)c1 [Compound 4, 1-(3,4-Difluoro-phenyl)-3-[3-(3-morpholin-4-yl-propoxy)-phenyl]-urea]	–
78	–	O=C(Nc1cccc(OCCCN2CCOCC2)c1)Nc1ccc(F)cc1F [Compound 5, 1-(2,4-Difluoro-phenyl)-3-[3-(3-morpholin-4-yl-propoxy)-phenyl]-urea]	–
–	82	O=C(Nc1ccc(C(F)(F)F)cc1)Nc1cccc(OCCCN2CCOCC2)c1 [Compound 9, 1-[3-(3-Morpholin-4-yl-propoxy)-phenyl]-3-(4-trifluoromethyl-phenyl)-urea]	–
–	74	O=C(Nc1cccc(OCCCN2CCOCC2)c1)Nc1cccc(C(F)(F)F)c1 [Compound 10, 1-[3-(3-Morpholin-4-yl-propoxy)-phenyl]-3-(3-trifluoromethyl-phenyl)-urea]	–
–	94	O=C(Nc1ccc(Cl)cc1)Nc1cccc(OCCCN2CCOCC2)c1 [Compound 15, 1-(4-Chloro-phenyl)-3-[3-(3-morpholin-4-yl-propoxy)-phenyl]-urea]	–
88	–	O=C(Cc1ccc(C(F)(F)F)cc1)Nc1cccc(OCCCN2CCOCC2)c1 [Compound 24, N-[3-(3-Morpholin-4-yl-propoxy)-phenyl]-2-(4-trifluoromethyl-phenyl)-acetamide]	–
–	90	O=C(Nc1ccc(OC(F)(F)F)cc1)Nc1cccc(OCCCN2CCOCC2)c1 [Compound 28, 1-[3-(3-Morpholin-4-yl-propoxy)-phenyl]-3-(4-trifluoromethoxy-phenyl)-urea]	–
